PubChem BioAssay (NCI)
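Each compound was tested at five concentrations against cells in 96-well plates for 48 hours. The concentration for full growth arrest is given as TGI.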

Experiments:
Test in all cases: NCI-60 cell line screen, 48 h
IGROV1 ovarian = test system: IGROV1 ovarian
NCI-H522 lung = test system: NCI-H522 lung
UO-31 renal = test system: UO-31 renal
OVCAR-3 ovarian = test system: OVCAR-3 ovarian
SK-MEL-5 melanoma = test system: SK-MEL-5 melanoma
SK-OV-3 ovarian = test system: SK-OV-3 ovarian
SNB-78 CNS = test system: SNB-78 CNS
NCI-H460 lung = test system: NCI-H460 lung
NCI-H226 lung = test system: NCI-H226 lung
DLD-1 colon = test system: DLD-1 colon
COLO 205 colon = test system: COLO 205 colon
UACC-62 melanoma = test system: UACC-62 melanoma
SF-268 CNS = test system: SF-268 CNS
OVCAR-5 ovarian = test system: OVCAR-5 ovarian
HCT-116 colon = test system: HCT-116 colon
MALME-3M melanoma = test system: MALME-3M melanoma
K-562 leukemia = test system: K-562 leukemia
HCT-15 colon = test system: HCT-15 colon
RXF 393 renal = test system: RXF 393 renal
HL-60(TB) leukemia = test system: HL-60(TB) leukemia

| Compound | TGI (IGROV1 ovarian) | TGI (NCI-H522 lung) | TGI (UO-31 renal) | TGI (OVCAR-3 ovarian) | TGI (SK-MEL-5 melanoma) | TGI (SK-OV-3 ovarian) | TGI (SNB-78 CNS) | TGI (NCI-H460 lung) | TGI (NCI-H226 lung) | TGI (DLD-1 colon) | TGI (COLO 205 colon) | TGI (UACC-62 melanoma) | TGI (SF-268 CNS) | TGI (OVCAR-5 ovarian) | TGI (HCT-116 colon) | TGI (MALME-3M melanoma) | TGI (K-562 leukemia) | TGI (HCT-15 colon) | TGI (RXF 393 renal) | TGI (HL-60(TB) leukemia) |
| --- | --- | --- | --- | --- | --- | --- | --- | --- | --- | --- | --- | --- | --- | --- | --- | --- | --- | --- | --- | --- |
| COC(=O)[C@@H]1c2cc3c(c(O)c2[C@@H](OC)C[C@@]1(C)O)C(=O)c1c(O)cc2c(c1C3=O)OC1O[C@@]2(C)[C@H](O)[C@@H](N(C)C)[C@@H]1O | 1.7 µM | 1.9 µM | 3.12 µM | 1.69 µM | 1.05 µM | 3.94 µM | 4.54 µM | 0.488 µM | 0.877 µM | 8.83 µM | 1.98 µM | 0.534 µM | 3.02 µM | 2.16 µM | 1.58 µM | 2.13 µM | 7.31 µM | 2.23 µM | 1.37 µM | – |
| [Cl-].[Rh+3].c1ccc(-c2ccnc3c2ccc2c(-c4ccccc4)ccnc23)cc1.c1ccc(-c2ccnc3c2ccc2c(-c4ccccc4)ccnc23)cc1.c1ccc(-c2ccnc3c2ccc2c(-c4ccccc4)ccnc23)cc1 | > 100 µM | > 85.1 µM | > 100 µM | > 100 µM | 50.3 µM | > 100 µM | > 100 µM | > 100 µM | > 100 µM | > 64.4 µM | 43.3 µM | > 100 µM | > 100 µM | > 100 µM | > 100 µM | 82.9 µM | > 78.4 µM | > 100 µM | > 100 µM | 60.3 µM |
| C=C(C)C1Cc2c(cc(O)c3c(=O)c4ccccc4n(C)c23)O1 (stereo not given) | – | 66.1 µM | – | – | > 100 µM | 84.6 µM | > 100 µM | > 100 µM | > 100 µM | > 100 µM | > 100 µM | – | 73 µM | > 100 µM | > 100 µM | > 100 µM | – | > 100 µM | 33.9 µM | > 100 µM |
| C/C=C(/C)C(=O)O[C@@H]1c2c(C)coc2C[C@H]2CC[C@H](O)[C@H](C)[C@]21C | > 100 µM | > 100 µM | > 100 µM | 70.6 µM | > 100 µM | > 100 µM | – | > 100 µM | > 100 µM | – | > 100 µM | > 100 µM | > 100 µM | > 100 µM | > 100 µM | 77.9 µM | > 100 µM | > 100 µM | 78.2 µM | 87 µM |
| O=[N+]([O-])c1ccc(/C=C/c2ccc(N=Nc3ccc(/C=C/c4ccc([N+](=O)[O-])cc4S(=O)(=O)O)c(S(=O)(=O)O)c3)cc2S(=O)(=O)O)c(S(=O)(=O)O)c1 | > 100 µM | > 100 µM | > 100 µM | > 100 µM | > 100 µM | > 100 µM | > 100 µM | > 100 µM | > 100 µM | > 100 µM | > 100 µM | > 100 µM | > 100 µM | > 100 µM | > 100 µM | > 100 µM | > 100 µM | > 100 µM | > 100 µM | > 100 µM |
| COc1ccc(/C(Cl)=C(\C=O)c2ccc(F)cc2)cc1 | 53.6 µM | 24.8 µM | 42.2 µM | 58 µM | 27.9 µM | 77.1 µM | 53.1 µM | 20.1 µM | 67.9 µM | 50.3 µM | 31.9 µM | 56 µM | 89.3 µM | – | 20 µM | 48 µM | > 100 µM | 31.2 µM | – | 9.12 µM |
| CN(C)CCNCc1c2ccccc2c(CNCCN(C)C)c2ccccc12 | > 69.4 µM | > 100 µM | > 100 µM | > 100 µM | 17.9 µM | 42.5 µM | 98.4 µM | > 100 µM | 47 µM | > 100 µM | 22.3 µM | > 61.6 µM | > 90.5 µM | 43.5 µM | > 90.1 µM | 35.4 µM | > 100 µM | > 100 µM | 62.7 µM | 46.8 µM |
